Results as given in patent EP2438921A1, “23-O-Acetylshengmanol-3-O-beta-D-xylopyranoside and its medical use” (Universität Innsbruck, priority 2010, dated 2012).

Columns and labels:
[1] = biological target: T1, GABAA receptors composed of α1, β2 and γ2S subunits (Homo sapiens, UniProt P14867+P18507+P47870); test: Modulation of GABA-induced chloride currents (IGABA), two-microelectrode voltage-clamp in Xenopus laevis oocytes expressing GABAA receptors; format: cell-based; conditions: for Stimulation of IGABA (%): 100 µM of compound, GABA EC3-10 concentration; for Maximal stimulation of IGABA: GABA EC3-10, α1β2γ2S receptors
T1 construct: expressed in transfected cells; host or cells: Xenopus laevis oocytes (stage V-VI), injected with cRNA transcribed from cDNA templates in pCMV vector; α1:β2:γ2S cRNA ratio 1:1:10
Experimental: Preparation of stage V-VI oocytes from Xenopus laevis, synthesis of capped off run-off poly(A^+) cRNA transcripts from linearized cDNA templates (pCMV vector) was performed as described (Khom et al. 2000). Briefly, female Xenopus laevis (NASCO, USA) were anaesthetised by exposing them for 15 minutes to a 0.2 % solution of MS-222 (methane sulfonate salt of 3-aminobenzoic acid ethyl ester; Sandoz) before surgically removing parts of the ovaries. Follicle membranes from isolated oocytes were enzymatically digested with 2 mg/ml collagenase (Type 1A, Sigma). One day after isolation, the oocytes were injected with about 10-50 nl of DEPC- treated water ([…], Sigma, Germany) containing the different cRNAs at a concentration of approximately 150 - 3000 ng/µl/subunit. The amount of cRNA was determined by means of a NanoDrop ND-1000 (Kisker-biotech, Steinfurt, Germany).
To ensure expression of the gamma-subunit, cRNAs were mixed in a ratio of 1:1:10 (Boileau et al., 2002). Oocytes were stored at 18°C in ND96 solution (Methfessel et al., 1986). Electrophysiological experiments were done using the two-microelectrode voyage-clamp method at a holding potential of -70 mV making use of a TURBO TEC 01C amplifier (npi electronic, Tamm, Germany) and an Axon Digidata 1322A interface (Molecular Devices, Sunnyvale, CA). Using pCLAMP v.9.2 data acquisition was carried out. The bath solution contained 90 mM NaCl, 1 mM KCI, 1 mM MgCl2·6H2O, 1 mM CaCl2 and 5 mM HEPES (pH 7.4). Microelectrodes were filled with 2M KCl and had resistances between 1 and 3 MΩ (Khom et al., 2007).
GABA and compound (extract, fraction or pure compound) were applied by means of fast perfusion system (see Baburin et al., 2006 for detail Drug or control solutions were applied by means of a TECAN Miniprep 60 permitting automation of the experiments. Oocytes with maximal current amplitudes >3 µA were discarded to exclude voltage-clamp errors (Khom et al., 2007).
Stimulation of chloride currents by modulators of the GABAA receptor was measured at a GABA concentration eliciting between 3 and 10% of the maximal current amplitude (EC3-10). The EC3-10 was determined at the beginning of each experiment. Enhancement of the chloride current was defined as (I(GABA+Comp)/IGABA) - 1, where I(GABA+Comp) is the current response in the presence of a given compound (extract, fraction or pure compound) and IGABA is the control GABA current. To measure the sensitivity of the GABAA receptor for a given compound, it was applied for an equilibration period of 1 minute before applying GABA ([…]). Concentration-response curves were generated and the data were fitted by non-iinear regression analysis using Origin software (OriginLab Corporation, USA). Data were fitted to the equation: (1)/(1 + (((EC50)/([Comp])))^nH), [formula] where nH is the Hill coefficient. Each data point represents the mean ± S.E. from at least 4 oocytes and ≥ 2 oocyte batches. Statistical significance was calculated using paired Student t-test with a confidence interval of p < 0.05.
As described above, dried and cut sub-aerial parts of A. racemosa were grinded and extracted with methanol. The resulting crude extract (A0) was subsequently partitioned between water and organic solvents of increasing polarity giving diethyl ether (A1), ethyl acetate (A2) and 1-butanol (A3) fractions. Obtained extracts and the remaining aqueous layer (A4) were tested for their ability to modulate IGABA at a concentration of 100 µg/mL. To analyse the modulation of IGABA by black cohosh extracts and isolated compounds, GABAA receptors composed of α1, β2 and γ2s subunits were expressed in Xenopus oocytes. Stimulation of IGABA was analysed by means of the 2-microelectrode voyage-clamp technique. These and all subsequent experiments were carried out at a GABA EC3-10 concentration.

mice [2] = test: Open Field Test (OF); format: in vivo, mice (C57BI/6N); conditions: for distance traveled in the open field in 10 min: 20 mg/kg/bodyweight i.p., 30 min prior to testing, control 38.2 ± 1.8 m
Experimental: (§1) Male mice (C57BI/6N) were obtained from Charles River Laboratories (Germany).
(§2) For maintenance mice were group housed with free access to food and water. Temperature was fixed to 23°C and 60% humidity with a 12 h light-dark cycle (lights on 0700-1900 hours). Mice at 3-8 months age were tested in all experiments (Khom et al., 2010).
(§3) Mice were transferred to the testing facility 24 h before commencement of experiments. Tests were performed between 0900 and 1300 hours. All tests were evaluated by an experimenter blinded to the administered compound, 30 min prior to testing animals were injected either with saline (0.9% NaCl-solution) as a control or with 23-O-acetylshengmanol-3-O-β-D-xylopyranosid (i.e., compound 4) and actein (i.e., compound 1), respectively (50 mg/250 µL stock prepared in 100% DMSO) at the indicated doses (0.2 mg/kg, 0.6 mg/kg, 2 mg/kg, 6 mg/kg, 20 mg/kg and 60 mg/kg bodyweight). All injection solutions contained 3% Polysorbat 80 and 10% of DMSO.
To determine explorative behaviour mice treated (n=9 for all doses) with compound 4 and control (n=11 mice were studied in the OF.
Open field behavior was tested over 10 min in a 50x50 cm box equipped with infrared rearing detection. Illumination was set to 150 lux. Explorative behavior was recorded and analyzed using the ActiMot 2 equipment (infrared beams) and software (TSE-systems, Bad Homburg, Germany). Arenas were subdivided into border (up to 8 cm from wall), center (20x20 cm, ie 16% of total area), and intermediate area according to the recommendations of EMPRESS (European Mouse Phenotyping Resource of Standardised Screens; http://empress.har.mrc.ac.uk).

mice [3] = test: Light/Dark Choice Test (LDT); format: in vivo, mice (C57BI/6N)
Experimental: as §1, §2, §3
Explorative behavior in a brightly lit area (400 lux) was investigated by insertion of a black box into the open field arena, covering one third of the space. Time spent and distance travelled was measured over a 10 min period in the open area. One small field directly at the entrance to the black box was assigned as transition zone. To reach the larger compartment assigned as open area, the mouse had to leave the dark area completely. Behaviour was recorded and analyzed by means of the ActiMot2 system and software (TSE-systems, Bad Homburg, Germany).

mice [4] = test: Stress-induced Hyperthermia Test (SIH); format: in vivo, mice (C57BI/6N)
Experimental: as §1, §2, §3
A temperature probe, lubricated with petrolatum, was inserted into the rectum of the mouse for a depth of up to 2 cm. […]
Prior to i.p injection of compound or saline the basal body temperature was determined. 3h after i.p injection, temperature was measured twice by means of a TH-5 Thermalert Monitoring Thermometer combined with a RET-3 rectal probe for mice. […]

[5] = biological target: T1, GABAA receptors composed of α1, β2 and γ2S subunits; test: Modulation of GABA-induced chloride currents (IGABA), two-microelectrode voltage-clamp in Xenopus laevis oocytes expressing GABAA receptors; format: cell-based; conditions: IGABA-max induced by application of 1mM GABA; data not shown

T1 sequence (P14867 28-456): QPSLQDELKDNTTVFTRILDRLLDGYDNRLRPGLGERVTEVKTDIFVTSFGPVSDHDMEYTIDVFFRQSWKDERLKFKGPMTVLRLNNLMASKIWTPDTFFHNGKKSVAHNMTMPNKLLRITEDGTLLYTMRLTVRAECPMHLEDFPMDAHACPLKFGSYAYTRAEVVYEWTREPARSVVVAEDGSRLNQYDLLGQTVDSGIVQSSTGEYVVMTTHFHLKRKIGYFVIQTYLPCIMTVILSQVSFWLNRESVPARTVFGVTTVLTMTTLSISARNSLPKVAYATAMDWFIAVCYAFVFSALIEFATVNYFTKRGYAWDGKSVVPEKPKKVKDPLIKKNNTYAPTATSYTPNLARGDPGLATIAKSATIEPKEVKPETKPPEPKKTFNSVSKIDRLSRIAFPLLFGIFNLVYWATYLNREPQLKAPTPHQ
T1 sequence (P47870 26-512): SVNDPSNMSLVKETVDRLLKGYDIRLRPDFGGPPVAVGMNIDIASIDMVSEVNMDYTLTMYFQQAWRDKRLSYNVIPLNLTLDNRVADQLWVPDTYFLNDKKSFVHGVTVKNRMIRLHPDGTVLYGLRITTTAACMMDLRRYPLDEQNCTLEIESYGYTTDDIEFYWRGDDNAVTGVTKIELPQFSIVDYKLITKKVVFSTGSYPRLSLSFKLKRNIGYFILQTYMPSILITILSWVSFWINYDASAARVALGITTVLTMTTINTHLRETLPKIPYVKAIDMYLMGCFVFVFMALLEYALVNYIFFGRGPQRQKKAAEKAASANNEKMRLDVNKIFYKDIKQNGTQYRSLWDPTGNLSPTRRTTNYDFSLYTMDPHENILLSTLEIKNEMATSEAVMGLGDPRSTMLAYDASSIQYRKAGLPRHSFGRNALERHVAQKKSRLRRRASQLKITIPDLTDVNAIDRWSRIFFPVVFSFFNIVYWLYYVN
T1 sequence (P18507 40-467 isoform P18507-1 limits assumed): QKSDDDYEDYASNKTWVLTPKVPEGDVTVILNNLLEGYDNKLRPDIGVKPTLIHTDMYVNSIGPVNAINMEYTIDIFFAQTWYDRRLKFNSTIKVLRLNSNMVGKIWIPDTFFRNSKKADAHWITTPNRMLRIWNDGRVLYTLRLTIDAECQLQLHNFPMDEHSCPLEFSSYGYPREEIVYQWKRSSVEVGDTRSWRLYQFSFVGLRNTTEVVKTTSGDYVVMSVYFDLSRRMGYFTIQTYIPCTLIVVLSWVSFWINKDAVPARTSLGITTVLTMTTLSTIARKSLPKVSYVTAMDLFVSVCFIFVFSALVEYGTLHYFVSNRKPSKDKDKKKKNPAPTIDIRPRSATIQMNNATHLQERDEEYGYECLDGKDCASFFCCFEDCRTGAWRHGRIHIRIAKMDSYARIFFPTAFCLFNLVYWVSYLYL

Molecule: 12-acetylacteol [Compound 1a]
- Stimulation of IGABA (%) [1]: 126 ± 29%

Molecule: CC(=O)O[C@@H]1C[C@@]23C[C@@]24CC[C@H](O[C@@H]2OC[C@@H](O)[C@H](O)[C@H]2O)C(C)(C)[C@@H]4CC[C@H]3[C@]2(C)C[C@@H]3O[C@]4(C[C@@H](C)[C@@H]3[C@@]12C)O[C@H](O)[C@@]1(C)O[C@@H]41 [Compound 1, actein]
- distance traveled in the open field in 10 min (mice [2]): 30.6 ± 2.1 m
- EC50 [1]: 36 ± 14 µM
- Maximal stimulation of IGABA ([1]; compound 4 at 300 µM): 378 ± 64%

Molecule: CC(=O)OC1CC23CC24CCC(OC2OCC(O)C(O)C2O)C(C)(C)C4CCC3C2(C)CC3OC4(CC(C)C3C12C)OCC1(C)OC14 (centres unmarked) [Compound 2, 26-deoxyactein]
- Stimulation of IGABA (%) [1]: 10 ± 6%

Molecule: CC(=O)O[C@@H]1C[C@@]23C[C@@]24CC[C@H](O[C@@H]2OC[C@@H](O)[C@H](O)[C@H]2O)C(C)(C)[C@@H]4CC[C@H]3[C@]2(C)C[C@@H]3O[C@@]4(C[C@@H](C)[C@@H]3[C@@]12C)OC[C@@]1(C)O[C@@H]41 [Compound 3, 23-epi-26-deoxyactein]
- Stimulation of IGABA (%) [1]: 10 ± 4%

Molecule: CC(=O)OC(CC(C)C1C(=O)C(O)C2(C)C3CCC4C(C)(C)C(OC5OCC(O)C(O)C5O)CCC45CC35CCC12C)C1OC1(C)C [Compound 4, 23-O-acetylshengmanol-3-O-β-D-xylopyranoside]
- distance traveled in the open field in 10 min (mice [2]): 22.6 ± 2.8 m
- ambulation in all areas of the OF and overall ambulation compared to control (mice [2]; doses ≥2 mg/kg/bodyweight i.p.): significantly (p<0.05) decreased ambulation
- reduced distance compared to control littermates (mice [2]; doses ≥20 mg/kg i.p.): approximately 50%
- EC50 [1]: 27 ± 8 µM
- IGABA enhancement, times stronger than the other isolated compounds ([1]; 100 µM, GABA EC3-10): about 10 times
- distance travelled in the lit area (mice [3]; i.p., data not shown): without significant effects
- time spent in the lit area (400 Lux) (mice [3]; ip, 0.6 mg/kg, 10 min): 265 ± 52 s
- Transitions from the dark compartment to the lit area (mice [3]; vs vehicle group, data not shown): did not differ
- body temperature increase upon stress (ΔT) (mice [4]; 6 mg/kg/bodyweight i.p., 3h after injection, control 1.2 ± 0.1°): 0.1 ± 0.1 °
- body temperature increase upon stress (ΔT) compared to control (mice [4]; i.p., doses of Figure 9): significantly (p<0.05) smaller increase
- chloride currents induced in the absence of GABA [5]: ≤ 1 % of IGABA-max

Molecule: CC(=O)O[C@H](C[C@@H](C)[C@H]1C(=O)[C@H](O)[C@@]2(C)[C@@H]3CC[C@H]4C(C)(C)[C@@H](O)CC[C@@]45C[C@@]35CC[C@]12C)[C@@H]1OC1(C)C [Compound 4a, 23-O-acetylshengmanol]
- Stimulation of IGABA (%) [1]: 64 ± 14%

Molecule: CC(=O)O[C@@H]1C[C@@]23C[C@@]24CC[C@H](O[C@@H]2OC[C@@H](O)[C@H](O)[C@H]2O)C(C)(C)[C@@H]4CC=C3[C@]2(C)C[C@@H]3O[C@@]4(O)[C@H](OC(C)(C)[C@H]4O)[C@@H](C)[C@@H]3[C@@]12C [Compound 5, cimiracemoside F]
- Stimulation of IGABA (%) [1]: 5 ± 2%

Molecule: C[C@@H]1C[C@H]2O[C@@]3(O[C@@H]2C(C)(C)O)[C@H](O)[C@@]2(C)[C@@H]4CC[C@H]5C(C)(C)[C@@H](O[C@@H]6OC[C@@H](O)[C@H](O)[C@H]6O)CC[C@@]56C[C@@]46CC[C@]2(C)[C@@H]13 [Compound 6, cimigenol-3-O-β-D-xylopyranoside]
- EC50 [1]: 28 ± 17 µM
- Maximal stimulation of IGABA ([1]; compound 4 at 300 µM): 256 ± 40%

Molecule: CC(=O)OC(C)(C)[C@H]1O[C@@]23O[C@@H]1C[C@@H](C)[C@@H]2[C@@]1(C)CC[C@@]24C[C@@]25CC[C@H](O[C@@H]2OC[C@H](O)[C@H](O)[C@H]2O)C(C)(C)[C@@H]5CC[C@H]4[C@]1(C)[C@H]3O [Compound 8, 25-O-acetylcimigenol-3-O-α-L-arabinopyranoside]
- EC50 [1]: 26 ± 7 µM
- Maximal stimulation of IGABA ([1]; compound 4 at 300 µM): 289 ± 45%
- Emax at 300 µM ([1]; read-out: Maximal stimulation of IGABA, GABA EC3-10, α1β2γ2S receptors, compound 4 at 300 µM): < 300%

Molecule: C=C(C)[C@H]1O[C@@]23O[C@@H]1C[C@@H](C)[C@@H]2[C@@]1(C)CC[C@@]24C[C@@]25CC[C@H](O[C@@H]2OC[C@@H](O)[C@H](O)[C@H]2O)C(C)(C)[C@@H]5CC[C@H]4[C@]1(C)[C@H]3O [Compound 10, 25-O-anhydrocimigenol-3-O-β-D-xylopyranoside]
- EC50 [1]: 26 ± 7 µM
- Stimulation of IGABA (%) [1]: -76 ± 7%
